Measured values published in patent US20110071197A1, “BIS-ARYL COMPOUNDS FOR USE AS MEDICAMENTS” (priority 2008, published 2011).

What follows are compounds tested against T1, Recombinant human LTC4 synthase (Homo sapiens, UniProt Q16873) (assay: LTC4 synthase in vitro assay (HTRF detection of LTC4)). Conditions: compound concentration 3 μM; HTRF method.
T1 construct: made in house; host or cells: Pichia pastoris
T1 sequence (Q16873 1-150): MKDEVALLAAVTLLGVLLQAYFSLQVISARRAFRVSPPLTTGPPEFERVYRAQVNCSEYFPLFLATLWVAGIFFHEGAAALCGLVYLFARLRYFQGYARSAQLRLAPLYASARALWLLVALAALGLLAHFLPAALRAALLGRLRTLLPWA
Type: biochemical
Method: Alternatively HTRF detection of LTC4 can be used:
In the assay, LTC4 synthase catalyses the reaction where the substrate LTA4 is converted to LTC4. Recombinant human LTC4 synthase is expressed in Piccia pastoralis and the purified enzyme is dissolved in 25 mM Tris-buffer pH 7.8 supplemented with 0.1 mM glutathione (GSH) and stored at −80° C. The assay is performed in phosphate buffered saline (PBS) pH 7.4 and 5 mM GSH in 384-well plates.
The following is added chronologically to each well: • 1. 48 μl LTC4 synthase in PBS with 5 mM GSH. The total protein concentration in this solution is 0.5 μg/ml. • 2. […] Incubation of the plate at room temperature for 10 minutes. • 4. 1 μl LTA4 (final conc. 2.5 μM). • 5. Incubation of the plate at room temperature for 5 minutes. • 6. 10 μl of the incubation mixture is analysed using homogeneous time resolved fluorescent (HTRF) detection.
`O=C(O)c1cc(Oc2ccc(Nc3ccc(C(=O)C4CC4)cc3)c(C(=O)O)c2)ccc1Nc1ccc(F)cc1` [1:7, 5-[3-carboxy-4-(4-cyclopropane-carbonylphenylamino)phenyloxy]-2-(4-fluorophenylamino)benzene-carboxylic acid] was tested, and the inhibition at 3 µM was 97%. `O=C(Nc1ccc(Oc2ccc(NC(=O)c3ccc(Cl)c(Cl)c3)c(C(=O)O)c2)cc1C(=O)O)c1ccc(F)c(F)c1` [1:8, 5-[3-carboxy-4-(3,4-difluorobenz-amido)phenyloxy]-2-(3,4-dichloro-benzamido)benzoic acid] was tested, and the “% inh.” value was 99 (3 μM) %.

Same assay, conditions: total concentration of title compound in the assay 10 μM; HTRF method
With “2-(2,3-dichlorobenzylamino)-5-{4-[(4-methoxybenzene-sulfonyl)methyl-amino]-phenoxy}benzoic acid [Example 11:12]” the “% inh.” value was 92%. In the case of “2-[(2-Chloro-pyridine-3-carbonyl)-amino]-5-{4-[(4-methoxy-benzene-sulfonyl)methylamino]-phenoxy}benzoic acid [11:20]”, the “% inh.” value is reported as 76%. “5-{4-[(4-methoxybenzene-sulfonyl)methylamino]-phenoxy}-2-(4-trifluoromethyl-benzoylamino)benzoic acid [11:3]” was tested, and the “% inh.” value was 98%. Work on `O=C(O)c1cc(Oc2ccc(Nc3cc(C(F)(F)F)ccc3Cl)c(C(=O)O)c2)ccc1Nc1ccc(F)c(F)c1` [1:1, 5-(3-carboxy-4-(2-chloro-5-trifluoromethylphenylamino)-phenyloxy)-2-(3,4-difluoro-phenylamino)benzoic acid] yielded an inhibition at 10 µM of 98%. `O=C(O)c1cc(Oc2ccc(Nc3ccc(F)c(F)c3)c(C(=O)O)c2)ccc1Nc1ccc(F)c(F)c1` [1:3, 3,3′-oxybis[6-(3,4-difluorophenyl-amino)benzoic acid]] gave an inhibition at 10 µM of 100%. Work on `O=C(O)c1cc(Oc2ccc(Nc3ccc4occc4c3)c(C(=O)O)c2)ccc1Nc1ccc(F)c(F)c1` [1:4, 5-[3-carboxy-4-(3,4-difluoro-phenylamino)phenyloxy]-2-(benzofuran-5-ylamino)benzoic acid] yielded an inhibition at 10 µM of 100%. Compound `O=C(O)c1cc(Oc2ccc(Nc3ccc(F)c(F)c3)c(C(=O)O)c2)ccc1Nc1ccc(C(F)(F)F)nc1` [1:5, 5-[3-carboxy-4-(3,4-difluoro-phenylamino)phenyloxy]-2-(6-trifluoromethylpyridin-3-yl-amino)-benzoic acid] has an inhibition at 10 µM of 99%. With `O=C(O)c1cc(Oc2ccc(Nc3ccc([N+](=O)[O-])cc3)c(C(=O)O)c2)ccc1Nc1ccc(F)cc1` [1:6, 5-[3-carboxy-4-(4-nitrophenyl-amino)phenyloxy]-2-(4-fluoro-phenylamino)benzene-carboxylic acid] the inhibition at 10 µM was 100%. `O=C(Nc1ccc(Oc2ccc(NC(=O)c3cccc(Cl)c3)c(C(=O)O)c2)cc1C(=O)O)c1ccc(SC(F)(F)F)cc1` [2:1, 5-[3-carboxy-4-(4-(trifluoromethylthio)-benzamido)-phenyloxy]-2-(3-chlorobenz-amido)benzoic acid] was tested, and the “% inh.” value was 98%. In the case of `O=C(Nc1ccc(Oc2ccc(NC(=O)c3cc(Cl)ccc3F)c(C(=O)O)c2)cc1C(=O)O)c1cccc(Cl)c1` [2:2, 5-[3-carboxy-4-(3-chloro-6-fluorobenz-amido)phenyloxy]-2-(3-chlorobenz-amido)benzoic acid], the “% inh.” value is reported as 100%. `O=C(Nc1ccc(Oc2ccc(NC(=O)c3cccc(Cl)c3)c(C(=O)O)c2)cc1C(=O)O)c1ccc([N+](=O)[O-])cc1` [2:3, 5-[3-carboxy-4-(4-nitrobenzamido)-phenyloxy]-2-(3-chlorobenzamido)benzoic acid] was tested, and the inhibition at 10 µM was 100%. For `O=C(Nc1ccc(Oc2ccc(NC(=O)c3cc([N+](=O)[O-])ccc3Cl)c(C(=O)O)c2)cc1C(=O)O)c1cccc(Cl)c1` [2:4, 5-[3-carboxy-4-(3-nitro-6-chlorobenz-amido)-phenyloxy]-2-(3-chlorobenz-amido)benzoic acid], the “% inh.” value was 99%. `CCCCc1ccc(C(=O)Nc2ccc(Oc3ccc(NC(=O)c4ccc(Cl)cc4Cl)c(C(=O)O)c3)cc2C(=O)O)cc1` [2:5, 5-[3-carboxy-4-(4-chloro-6-chloro-benzamido)-phenyloxy]-2-(4-butylbenz-amido)benzoic acid] was tested, and the “% inh.” value was 100%. `CCCCc1ccc(C(=O)Nc2ccc(Oc3ccc(NC(=O)c4cc(Cl)cc(Cl)c4)c(C(=O)O)c3)cc2C(=O)O)cc1` [2:6, 5-[3-carboxy-4-(3-chloro-5-chloro-benzamido)-phenyloxy]-2-(4-butylbenz-amido)benzoic acid] was tested, and the “% inh.” value was 100%. `CCCCc1ccc(C(=O)Nc2ccc(Oc3ccc(NC(=O)c4ccc(F)c(Cl)c4)c(C(=O)O)c3)cc2C(=O)O)cc1` [2:7, 5-[3-carboxy-4-(3-chloro-4-fluorobenz-amido)-phenyloxy]-2-(4-butylbenz-amido)benzoic acid] was tested, and the “% inh.” value was 100%. In the case of `CCCCc1ccc(C(=O)Nc2ccc(Oc3ccc(NC(=O)c4ccc(F)cc4Cl)c(C(=O)O)c3)cc2C(=O)O)cc1` [2:8, 5-[3-carboxy-4-(2-chloro-4-fluorobenz-amido)-phenyloxy]-2-(4-butylbenz-amido)benzoic acid], the “% inh.” value is reported as 100%. For `N#Cc1ccc(C(=O)Nc2ccc(Oc3ccc(NC(=O)c4cccc(Cl)c4)c(C(=O)O)c3)cc2C(=O)O)cc1` [2:9, 5-[3-carboxy-4-(4-cyanobenzamido)-phenyloxy]-2-(3-chlorobenzamido)benzoic acid], the inhibition at 10 µM was 99%. Work on `O=C(Nc1ccc(Oc2ccc([N+](=O)[O-])c(C(=O)O)c2)cc1C(=O)O)c1ccccc1` [3:1, 2-benzamido-5-(3-carboxy-4-nitrophenoxy)benzoic acid] yielded an inhibition at 10 µM of 65%. Compound `O=C(Nc1ccc(Oc2ccc([N+](=O)[O-])c(C(=O)O)c2)cc1C(=O)O)c1ccc(C(F)(F)F)cc1` [3:2, 2-nitro-5-[4-(4-trifluoromethyl-benzoylamino)-3-carboxy-phenoxy]benzoic acid] has an inhibition at 10 µM of 86%. With `CCCCc1ccc(C(=O)Nc2ccc(Oc3ccc(NC(=O)c4ccc(CCCC)cc4)c(C(=O)O)c3)cc2C(=O)O)cc1` [4:1, 5-[3-carboxy-4-(4-butyl-benzamido)phenyloxy]-2-(4-butylbenzamido)benzoic acid] the inhibition at 10 µM was 99%. `O=C(Nc1ccc(Oc2ccc(NC(=O)c3ccccc3)c(C(=O)O)c2)cc1C(=O)O)c1ccccc1` [4:2, 5-[3-carboxy-4-benzamido-phenyloxy]-2-benzamidobenzoic acid] gave an inhibition at 10 µM of 93%. `O=C(Nc1ccc(Oc2ccc(NC(=O)c3ccc([N+](=O)[O-])cc3)c(C(=O)O)c2)cc1C(=O)O)c1ccc([N+](=O)[O-])cc1` [4:3, 5-[3-carboxy-4-(4-nitrobenzamido)phenyloxy]-2-(4-nitrobenzamido)benzoic acid] showed an inhibition at 10 µM of 97%. `O=C(Nc1ccc(Oc2ccc(NC(=O)c3cccc(Cl)c3)c(C(=O)O)c2)cc1C(=O)O)c1cccc(Cl)c1` [4:4, 5-[3-carboxy-4-(3-chlorobenzamido)phenyloxy]-2-(3-chlorobenzamido)benzoic acid] was tested, and the inhibition at 10 µM was 99%. `CCCCc1ccc(C(=O)Nc2ccc(Oc3ccc(NC(=O)c4ccccc4)c(C(=O)O)c3)cc2C(=O)O)cc1` [5:1, 5-[3-carboxy-4-(4-butylbenzamido)-phenyloxy]-2-benzamidobenzoic acid] showed an inhibition at 10 µM of 100%. Compound `O=C(Nc1ccc(Oc2ccc(NC(=O)c3ccc([N+](=O)[O-])cc3)c(C(=O)O)c2)cc1C(=O)O)c1ccccc1` [5:2, 5-[3-carboxy-4-(4-nitrobenzamido)-phenyloxy]-2-benzamidobenzoic acid] has an inhibition at 10 µM of 99%. `O=C(Nc1ccc(Oc2ccc(NC(=O)c3cccc(Cl)c3)c(C(=O)O)c2)cc1C(=O)O)c1ccccc1` [5:3, 5-[3-carboxy-4-(3-chlorobenzamido)-phenyloxy]-2-benzamidobenzoic acid] gave an inhibition at 10 µM of 100%. For `CCCCc1ccc(C(=O)Nc2ccc(Oc3ccc(NC(=O)c4ccc(Cl)cc4Cl)c(CC(=O)O)c3)cc2C(=O)O)cc1` [6:1, 2-(4-butyl-benzoyl-amino)-5-[3-carboxy-methyl-4-(2,4-dichloro-benzoylamino)phenoxy]-benzoic acid], the “% inh.” value was 99%. `O=C(O)Cc1cc(Oc2ccc(NC(=O)c3ccc(C(F)(F)F)cc3F)c(C(=O)O)c2)ccc1NC(=O)c1cc(Cl)ccc1O` [6:2, 5-[3-carboxymethyl-4-(5-chloro-2-hydroxybenzoylamino)-phenoxy]-2-(2-fluoro-4-trifluoromethyl-benzoylamino)benzoic acid] gave an inhibition at 10 µM of 98%. `CC(C)Oc1ccc(C(=O)Nc2ccc(Oc3ccc(NC(=O)c4cc(Cl)ccc4O)c(CC(=O)O)c3)cc2C(=O)O)cc1` [6:3, 5-[3-carboxymethyl-4-(5-chloro-2-hydroxybenzoylamino)phenoxy]-2-(4-isopropoxybenzoyl-amino)benzoic acid] was tested, and the inhibition at 10 µM was 100%. Work on `O=C(O)Cc1cc(Oc2ccc(NC(=O)c3ccc(C(F)(F)F)cc3F)c(C(=O)O)c2)ccc1NC(=O)c1cccc(Cl)c1` [6:4, 5-[3-carboxymethyl-4-(3-chloro-benzoylamino)-phenoxy]-2-(2-fluoro-4-trifluoromethylbenzoyl-amino)benzoic acid] yielded an inhibition at 10 µM of 96%. With `O=C(O)Cc1cc(Oc2ccc(NC(=O)c3ccc(C(F)(F)F)cc3F)c(C(=O)O)c2)ccc1NC(=O)c1cc(F)c(Cl)cc1F` [6:5, 5-[3-carboxy-methyl-4-(4-chloro-2,5-difluoro-benzoylamino)-phenoxy]-2-(2-fluoro-4-trifluoro-methylbenzoylamino)-benzoic acid] the “% inh.” value was 96%.
